In PubChem BioAssay (NCI):
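The compound was tested at five concentrations on cells cultured in 96-well plates, with a 48-hour exposure period. GI50 is the concentration that inhibits growth by half. The concentration for full growth arrest is given as TGI.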

Tests used:
Assay in all cases: NCI anticancer screen, dose series, 48 h
SN12C renal = test system: SN12C renal
SF-539 CNS = test system: SF-539 CNS
SR leukemia = test system: SR leukemia
MDA-MB-435 = test system: MDA-MB-435
OVCAR-4 ovarian = test system: OVCAR-4 ovarian
NCI-H226 lung = test system: NCI-H226 lung
LOX IMVI melanoma = test system: LOX IMVI melanoma
NCI/ADR-RES ovarian = test system: NCI/ADR-RES ovarian
SK-MEL-2 melanoma = test system: SK-MEL-2 melanoma
MALME-3M melanoma = test system: MALME-3M melanoma
SW-620 colon = test system: SW-620 colon
MOLT-4 leukemia = test system: MOLT-4 leukemia
HCC-2998 colon = test system: HCC-2998 colon
MCF7 breast = test system: MCF7 breast
DU-145 prostate = test system: DU-145 prostate
TK-10 renal = test system: TK-10 renal
OVCAR-5 ovarian = test system: OVCAR-5 ovarian
A498 renal = test system: A498 renal
MDA-MB-231 breast = test system: MDA-MB-231 breast
786-0 renal = test system: 786-0 renal
UACC-257 melanoma = test system: UACC-257 melanoma
HL-60(TB) leukemia = test system: HL-60(TB) leukemia
EKVX NSCLC = test system: EKVX NSCLC
RXF 393 renal = test system: RXF 393 renal
M14 melanoma = test system: M14 melanoma
SK-MEL-28 melanoma = test system: SK-MEL-28 melanoma
HOP-62 NSCLC = test system: HOP-62 NSCLC
OVCAR-8 ovarian = test system: OVCAR-8 ovarian
IGROV1 ovarian = test system: IGROV1 ovarian
OVCAR-3 ovarian = test system: OVCAR-3 ovarian
UO-31 renal = test system: UO-31 renal
HCT-116 colon = test system: HCT-116 colon
SNB-75 CNS = test system: SNB-75 CNS
CCRF-CEM leukemia = test system: CCRF-CEM leukemia
RPMI-8226 leukemia = test system: RPMI-8226 leukemia
SK-MEL-5 melanoma = test system: SK-MEL-5 melanoma
HOP-92 NSCLC = test system: HOP-92 NSCLC
UACC-62 melanoma = test system: UACC-62 melanoma
SNB-19 CNS = test system: SNB-19 CNS
HCT-15 colon = test system: HCT-15 colon
NCI-H23 lung = test system: NCI-H23 lung
COLO 205 colon = test system: COLO 205 colon
SK-OV-3 ovarian = test system: SK-OV-3 ovarian
A549 NSCLC = test system: A549 NSCLC
BT-549 breast = test system: BT-549 breast
PC-3 prostate = test system: PC-3 prostate
NCI-H522 lung = test system: NCI-H522 lung
CAKI-1 renal = test system: CAKI-1 renal
K-562 leukemia = test system: K-562 leukemia
SF-268 CNS = test system: SF-268 CNS
HT29 colon = test system: HT29 colon
KM12 colon = test system: KM12 colon
SF-295 CNS = test system: SF-295 CNS
T-47D breast = test system: T-47D breast
U251 CNS = test system: U251 CNS
ACHN renal = test system: ACHN renal
NCI-H460 lung = test system: NCI-H460 lung
HS 578T breast = test system: HS 578T breast

## CN1CCN(c2ccc(NC(=O)c3cncnc3Nc3ccc(OCc4cccc(F)c4)c(Cl)c3)cc2)CC1
SN12C renal
  GI50: 1130 nM
  TGI: 2750 nM
SF-539 CNS
  GI50: 847 nM
  TGI: 1600 nM
SR leukemia
  GI50: 939 nM
  TGI: 2460 nM
MDA-MB-435
  GI50: 972 nM
  TGI: 1870 nM
OVCAR-4 ovarian
  GI50: 4000 nM
  TGI: > 50000 nM
NCI-H226 lung
  GI50: 40900 nM
  TGI: > 50000 nM
LOX IMVI melanoma
  GI50: 849 nM
  TGI: 1610 nM
NCI/ADR-RES ovarian
  GI50: 5270 nM
  TGI: > 50000 nM
SK-MEL-2 melanoma
  GI50: 3000 nM
  TGI: 12200 nM
MALME-3M melanoma
  GI50: 850 nM
  TGI: 1740 nM
SW-620 colon
  GI50: 932 nM
  TGI: 1880 nM
MOLT-4 leukemia
  GI50: 907 nM
  TGI: 2280 nM
HCC-2998 colon
  GI50: 1130 nM
  TGI: 2700 nM
MCF7 breast
  GI50: 993 nM
  TGI: 2400 nM
DU-145 prostate
  GI50: 4900 nM
  TGI: > 50000 nM
TK-10 renal
  GI50: 22400 nM
  TGI: > 50000 nM
OVCAR-5 ovarian
  GI50: 1600 nM
  TGI: 7290 nM
A498 renal
  GI50: 1550 nM
  TGI: 24700 nM
MDA-MB-231 breast
  GI50: 971 nM
  TGI: 1990 nM
786-0 renal
  GI50: 992 nM
  TGI: 2030 nM
UACC-257 melanoma
  GI50: 1070 nM
  TGI: 2540 nM
HL-60(TB) leukemia
  GI50: 1300 nM
  TGI: 3440 nM
EKVX NSCLC
  GI50: 10900 nM
  TGI: > 50000 nM
RXF 393 renal
  GI50: 956 nM
  TGI: 1900 nM
M14 melanoma
  GI50: 895 nM
  TGI: 1710 nM
SK-MEL-28 melanoma
  GI50: 849 nM
  TGI: 1560 nM
HOP-62 NSCLC
  GI50: 2530 nM
  TGI: 16100 nM
OVCAR-8 ovarian
  GI50: 7840 nM
  TGI: > 50000 nM
IGROV1 ovarian
  GI50: 1780 nM
  TGI: > 50000 nM
OVCAR-3 ovarian
  GI50: 3580 nM
  TGI: > 50000 nM
UO-31 renal
  GI50: 893 nM
  TGI: 1700 nM
HCT-116 colon
  GI50: 966 nM
  TGI: 2120 nM
SNB-75 CNS
  GI50: 5770 nM
  TGI: 18800 nM
CCRF-CEM leukemia
  GI50: 1270 nM
  TGI: 4230 nM
RPMI-8226 leukemia
  GI50: 1260 nM
  TGI: 3320 nM
SK-MEL-5 melanoma
  GI50: 1550 nM
  TGI: 5200 nM
HOP-92 NSCLC
  GI50: 1950 nM
  TGI: 18100 nM
UACC-62 melanoma
  GI50: 914 nM
  TGI: 1740 nM
SNB-19 CNS
  GI50: 2810 nM
  TGI: 18700 nM
HCT-15 colon
  GI50: 889 nM
  TGI: 1910 nM
NCI-H23 lung
  GI50: 4010 nM
  TGI: > 50000 nM
COLO 205 colon
  GI50: 799 nM
  TGI: 1540 nM
SK-OV-3 ovarian
  GI50: 10000 nM
  TGI: > 50000 nM
A549 NSCLC
  GI50: 1510 nM
  TGI: 5050 nM
BT-549 breast
  GI50: > 50000 nM
  TGI: > 50000 nM
PC-3 prostate
  GI50: 1780 nM
  TGI: > 50000 nM
NCI-H522 lung
  GI50: 1140 nM
  TGI: 3280 nM
CAKI-1 renal
  GI50: 1480 nM
  TGI: 6010 nM
K-562 leukemia
  GI50: 799 nM
  TGI: 1830 nM
SF-268 CNS
  GI50: 4910 nM
  TGI: 15900 nM
HT29 colon
  GI50: 1100 nM
  TGI: 2650 nM
KM12 colon
  GI50: 2210 nM
  TGI: > 50000 nM
SF-295 CNS
  GI50: 6510 nM
  TGI: 16500 nM
T-47D breast
  GI50: 3630 nM
  TGI: > 50000 nM
U251 CNS
  GI50: 1070 nM
  TGI: 2520 nM
ACHN renal
  GI50: 1340 nM
  TGI: 3740 nM
NCI-H460 lung
  GI50: 1140 nM
  TGI: 2470 nM
HS 578T breast
  GI50: 1990 nM
  TGI: 11600 nM
